According to patent US5821231A, “CS-1 peptidomimetics, compositions and methods of using same” (Cytel Corporation, priority 1995, dated 1998):
Square brackets hold non-standard residues; d marks the D form. Peptide text beside a SMILES is read from it. * marks the point of attachment. PhAc = O=C(Cc1ccccc1)*

Legend:
[1] = test system: BALB/c mice; assay: Adoptive transfer delayed type hypersensitivity in mice (oxazolone); format: in vivo, mouse; details: initial study; 6 mg/kg/day s.c. pump, 24-hour; FIG. 5
Experimental: An adoptive transfer delayed-type hypersensitivity murine model has been developed using splenic T cells primed to oxazolone. This model is described in Elices et al., Clin. Exp. Rheum., 11(Suppl. 8):577-580 (1993), whose procedures were followed here.
Thus, BALB/c mice were shaved on the belly and painted (50 μl on the belly and 5 μl on each paw) with three percent oxazolone in acetone/olive oil (4:1) at days zero and 1. At day 5, the mice were sacrificed, their spleens removed, and splenic T cells were obtained via nylon wool columns.
Normal saline or saline containing 25×10^6 /animal of the oxazolone-immune T cells were separately injected into naive mice. The mice were then challenged by painting 10 μl of 2 percent oxazolone onto one ear each. All procedures were carried out under sterile conditions and in endotoxin-free buffers.
Prior to challenge or saline injection, the mice were implanted with pumps that subcutaneously administered normal saline, normal saline containing the compound, Compound ID No. 896.52, N-phenylacetyl-Leu-Asp-Phe-D-Pro-NH2, or normal saline containing a compound with a scrambled sequence continually at 6 mg/kg/day for a 24-hour time period. The swelling diameter at the site of challenge or saline injection was measured with a microcaliper 24 hours thereafter.
An expanded study was carried out as described above except that a scrambled compound control was not used as a control for further inhibitor compounds of Table 1 with larger groups of mice. Statistical analyses were carried out versus injection of vehicle alone.

[2] = target: VLA-4 (Homo sapiens, UniProt P05556+P13612); assay: In vitro binding assay: 51Cr-labeled Jurkat cells to solid phase-bound CS-1 compound (SEQ ID NO:1); format: cell-based; set-up: inflammatory cells that contain the VLA-4 receptor [Jurkat cells; host or cells: Jurkat cells (human T lymphoblastic line)
Chain of VLA-4 (P13612 34-1032): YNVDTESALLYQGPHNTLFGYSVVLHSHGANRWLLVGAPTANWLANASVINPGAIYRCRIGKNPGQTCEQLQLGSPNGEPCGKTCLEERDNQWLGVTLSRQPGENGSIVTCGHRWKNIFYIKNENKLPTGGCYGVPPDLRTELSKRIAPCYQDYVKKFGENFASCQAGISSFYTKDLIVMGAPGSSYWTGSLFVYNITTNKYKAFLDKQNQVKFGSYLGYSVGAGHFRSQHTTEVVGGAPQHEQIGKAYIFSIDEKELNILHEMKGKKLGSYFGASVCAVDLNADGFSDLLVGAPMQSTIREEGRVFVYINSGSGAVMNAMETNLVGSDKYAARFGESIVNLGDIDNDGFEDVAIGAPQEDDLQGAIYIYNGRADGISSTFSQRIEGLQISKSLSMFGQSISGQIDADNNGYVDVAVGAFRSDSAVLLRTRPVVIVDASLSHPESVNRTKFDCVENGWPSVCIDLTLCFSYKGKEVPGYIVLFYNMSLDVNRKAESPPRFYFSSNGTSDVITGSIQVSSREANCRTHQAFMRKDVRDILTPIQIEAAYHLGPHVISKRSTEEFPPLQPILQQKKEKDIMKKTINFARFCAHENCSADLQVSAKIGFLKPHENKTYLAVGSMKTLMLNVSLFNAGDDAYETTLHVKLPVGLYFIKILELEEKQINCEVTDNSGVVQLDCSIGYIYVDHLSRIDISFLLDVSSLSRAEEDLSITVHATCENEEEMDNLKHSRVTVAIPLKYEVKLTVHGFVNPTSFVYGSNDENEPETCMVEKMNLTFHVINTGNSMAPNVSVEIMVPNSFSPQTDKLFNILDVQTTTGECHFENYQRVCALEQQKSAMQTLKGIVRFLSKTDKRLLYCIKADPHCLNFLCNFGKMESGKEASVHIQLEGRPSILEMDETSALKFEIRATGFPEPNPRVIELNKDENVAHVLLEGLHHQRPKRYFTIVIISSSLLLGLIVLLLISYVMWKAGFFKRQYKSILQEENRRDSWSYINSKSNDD
Chain of VLA-4 (P05556 21-798): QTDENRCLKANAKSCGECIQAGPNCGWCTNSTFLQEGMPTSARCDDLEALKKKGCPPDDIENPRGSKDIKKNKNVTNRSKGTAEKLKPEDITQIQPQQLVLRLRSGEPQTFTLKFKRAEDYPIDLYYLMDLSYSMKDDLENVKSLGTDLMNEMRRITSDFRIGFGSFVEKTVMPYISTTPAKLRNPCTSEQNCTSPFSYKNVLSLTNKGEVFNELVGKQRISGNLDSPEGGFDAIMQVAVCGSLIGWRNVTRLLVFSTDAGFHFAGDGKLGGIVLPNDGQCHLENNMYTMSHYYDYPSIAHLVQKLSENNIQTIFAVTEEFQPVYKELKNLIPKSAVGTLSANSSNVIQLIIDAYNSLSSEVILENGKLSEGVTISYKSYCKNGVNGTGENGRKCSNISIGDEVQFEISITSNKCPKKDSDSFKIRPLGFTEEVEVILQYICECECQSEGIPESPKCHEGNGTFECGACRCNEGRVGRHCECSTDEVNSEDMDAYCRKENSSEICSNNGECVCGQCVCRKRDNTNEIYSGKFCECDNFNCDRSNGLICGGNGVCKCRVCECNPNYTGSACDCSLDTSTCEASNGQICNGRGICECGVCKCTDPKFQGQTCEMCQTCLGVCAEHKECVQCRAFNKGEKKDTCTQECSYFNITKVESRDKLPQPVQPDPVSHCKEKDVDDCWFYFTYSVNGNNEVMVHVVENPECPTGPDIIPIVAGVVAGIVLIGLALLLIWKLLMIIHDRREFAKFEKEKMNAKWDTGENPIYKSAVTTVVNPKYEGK
Experimental: Binding inhibition is measured here as a concentration of compound that inhibits one-half the binding between a standard number of Jurkat cells and a standard amount of CS-1 compound bound to the surface of a microtiter plate well. Those concentrations are conveniently expressed as IC50 values, smaller numbers indicating a lower concentration required to inhibit 50 percent binding and therefore greater potency. Further specifics of this assay are provided hereinafter.
Jurkat cells (ATCC TIB 152), a human T lymphoblastic line, labeled with ^51 chromium were used to assay in vitro binding inhibition provided by various compounds discussed herein.
The plates were prepared as follows: The 25-mer CS-1 compound (SEQ ID NO:1) dissolved at 0.5-1 μg/ml in a buffer of 0.1M NaHCO3 at pH 9.5 that also contained 10 μg/ml of bovine serum albumin (BSA) or a conjugate of the CS-1 compound linked to ovalbumin (CS-1-OVA) dissolved at 1-2.5 μg/ml in the same buffer was used as the substrate. Each well of the microtiter plates was coated with 50 μl of substrate or buffer alone for controls. The wells were permitted to dry out completely and were then rinsed twice with PBS at pH 7.4. Non-specific binding sites of each well were then blocked using 200 μl per well of RPMI/1 percent BSA for two hours at room temperature.
Jurkat cells (3-5×10^6 cells) were placed into a 15 ml Falcon™ round-bottom tube with a cap. The tube was centrifuged, and the extra medium was then removed.
Two hundred microliters of a ^51 Cr labeling solution were added to the centrifuged cells and maintained in contact with the cells for 90-120 minutes in a warm room. […] Longer contact times provide a greater amount of labeling but lower cell viability.
The labeled cells are washed with (i) complete medium, (ii) 1 mM EDTA/PBS and then (iii) RPM1/1 percent BSA free of serum components. The cells are centrifuged after each washing. The cells are finally resuspended in serum-free RPMI/1 percent BSA at a concentration of 1×10^6 viable cells/ml, which provides a concentration that is diluted by one-half in the assay.
Inhibitor compounds are prepared as stock solutions at 20 mg/ml in DMSO in 1.5 ml cryogenic screwcap vials, and were stored at -70° C. Using Flow™ round-bottom or V-bottom microtiter plates, the inhibitor compounds were prepared at twice the assay concentration in RPMI/1 percent BSA at 60 μl/well.
Four initial dilutions were typically used.
The ^51 Cr-labeled cells ([…] at 60 μl/well) were then admixed with the diluted compound solutions. The admixtures were maintained at room temperature (about 22° C.) for 30 minutes.
One hundred microliters of each inhibitor compound/cell admixture were transferred to the substrate-coated wells. This was done in triplicate for each dilution. The resulting plates were incubated for 30 minutes at 37° C. and then washed gently three times with RPMI/1 percent BSA at 200 μl/well. Binding was observed microscopically, particularly after the second wash.
The bound cells were then lysed by the addition of a 0.5 percent solution of sodium dodecylsulfate in water at 100 μl/well. The resulting solutions were then processed for counting and calculation of IC50 values following usual procedures.
The data of Table 1 are normalized to the binding of SEQ ID NO: 3. […] Multiple assays for the same compound were averaged.

## CC(C)C[C@H](NC(=O)[C@H](CC(=O)O)NC(=O)Cc1ccccc1)C(=O)N[C@@H](Cc1ccccc1)C(=O)N1CCC[C@@H]1C(N)=O [N-phenylacetyl-Asp-Leu-Phe-D-Pro-NH2, reference compound] (PhAc-DLF[dP]-NH2)
[1]
  reduction of inflammation (swelling diameter at challenge site): no reduction of inflammation
[2]; binding inhibition potency (IC50) relative to standard compound of SEQ ID NO:3 = 1, about one-tenth or less assigned zero
  Relative Potency: 0
[2]; compared with standard 10-mer of SEQ ID NO:3 or other peptides
  VLA-4 binding inhibition (in words): no inhibition of VLA-4
